Several values for one entry are separate records, joined by “and”; a condition that tells them apart may be missing. Equal entries are not always repeated.
Tested on: 857933-349-R-J2-PDC complex spheroid viability
Assay: Anticancer human tumor 857933-349-R-J2-PDC patient-derived colon adenocarcinoma cell line growth inhibition [POLQ]
Settings: for viability, T/C: stronger effect = lower value; for IC50: curve of compound
Experimental: Multicellular complex tumor spheroid response to Polymerase (POL) inhibitors (novobiocin, ART-558, RP6685) in combination with a variety of drugs and investigational agents in selected tumor cell lines
The POL inhibitors (novobiocin, ART-558, and RP6685) were evaluated both individually and in combination with standard of care and investigational anticancer small molecules within a complex spheroid model of solid tumors. . Complex spheroids include a stromal component modeled by human endothelial cells (HUVEC) and fibroblasts modeled by human mesenchymal stem cells (MSCs). The concentration ranges selected for each drug and investigational agent were based upon clinically achievable concentrations if the clinical Cmax of the agent was known.
Compounds. The drugs and investigational agents: novobiocin (NSC847541), ART-558 (NSC835418), RP-6685 (NSC848927), peposertib (NSC802822), ceralasertib (NSC780249), elimusertib (NSC800525), camonsertib (NSC841442), AZD-1390 (NSC803789), olaparib (NSC753686), talazoparib (NSC767125), rucaparib (NSC756644), sotorasib (NSC818433), MRTX-1133 (NSC836407), SN-38 (NSC673596), topotecan (NSC609699), epotoside (NSC141540), doxorubicin (NSC123127), gemcitabine (NSC613327), 5-fluorouracil (NSC19893), paclitaxel (NSC125973), vemurafenib (NSC761431), MSA-2 (NSC828583), SN-011 (NSC837082), adavosertib (NSC754352), prexasertib (NSC758257), carboplatin (NSC241240) and oxaliplatin (NSC266046), were obtained from the National Cancer Institute (NCI) Developmental Therapeutics Program Chemical Repository (21). The FDA-approved anticancer drug set is available from the Developmental Therapeutics Program at https://dtp.cancer.gov/organization/dscb/obtaining/. […] The stock solutions were prepared in dimethyl sulfoxide (DMSO, Sigma-Aldrich, St. Louis, MO, cat. D2650), except for the platinum compounds which were prepared in saline (Quality Biological, Gaithersburg, MD, cat. 114-055-101), at 800-fold the tested concentration and stored at -70 degrees C prior to their use. All drugs and investigational agents were tested over a range starting from a high concentration at or near the clinical Cmax and decreasing in half-log increments. If the clinical Cmax for an agent had not been determined, the highest concentration tested was 10 microM, except for SN-38, which was tested at a high concentration of 1 microM.
Cell Culture. All cells were maintained in an incubator at 37 degrees C and 5% CO2 with 95% humidity. The PDC lines were cultured according to standard operating procedures established by the NCI PDMR (https://pdmr.cancer.gov). Table 3 of the manuscript, lists the cell lines along with the number of the three cell types plated to form the mct-spheroids and media for tumor cell growth. After thawing, all PDC lines, except 997537-175-T-J1-PDC and 415267-285-R-J2-PDC, were cultured in Matrigel-coated flasks prepared with a working solution of 1X Ham's F-12 nutrient mix, without supplementation (Thermo Fisher Scientific, cat. 11765054), 100 U/mL penicillin-streptomycin (Thermo Fisher Scientific, cat. 15140122), and 2.5% Matrigel (Corning Inc., Corning, NY, cat. 354248) for the first three passages. The two PDC lines 997537-175-T-J1-PDC and 415267-285-R-J2-PDC were cultured on uncoated flasks. The 857933-349-R-J2-PDC line was cultured in 6C/Colon 1B media containing advanced DMEM/F-12 (Thermo Fisher Scientific, cat. 12634028), 10 mM HEPES (Thermo Fisher Scientific, cat. 15630080), 1X GlutaMAX supplement (Thermo Fisher Scientific, cat. 35050061), 0.1 mg/mL primocin (InvivoGen, San Diego, CA, cat. ant-pm-2), 10% defined fetal bovine serum, heat inactivated (HyClone Laboratories Inc., Logan, UT, cat. SH30070.03HI), 50% L-WRN conditioned media (ATCC, cat. CRL-3276), 1.25 mM N-Acetyl-L-cysteine (Sigma-Aldrich, cat. A9165), 10 mM nicotinamide (Sigma-Aldrich, cat. N0636), 1X B-27 supplement (Thermo Fisher Scientific, cat. 17504044), 1X N-2 supplement (Thermo Fisher Scientific, cat. […]
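Further: spheroids exposed to compounds for seven days before readout.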

Row | SMILES | viability, T/C (compound 0.0316 µM) | viability, T/C (compound 0.1 µM) | viability, T/C (compound 0.316 µM) | viability, T/C (compound 1 µM) | viability, T/C (compound 3.16 µM) | viability, T/C (compound 10 µM) | IC50 | viability, T/C (compound 0.00316 µM) | viability, T/C (compound 0.01 µM) | viability, T/C (compound 0.00949 µM) | viability, T/C (compound 0.03 µM) | viability, T/C (compound 0.0949 µM) | viability, T/C (compound 0.3 µM) | viability, T/C (compound 0.949 µM) | viability, T/C (compound 3 µM) | viability, T/C (compound 0.000316 µM) | viability, T/C (compound 0.001 µM)
1 | C#Cc1c(F)ccc2cc(O)cc(-c3ncc4c(N5CC6CCC(C5)N6)nc(OCC56CCCN5CC(F)C6)nc4c3F)c12 (stereo unspecified) | 85.3% and 89.3% and 102% | 101% and 91.6% and 82.3% | 95.7% and 95.3% and 81.3% | 87.1% and 81.7% and 96.6% | 99.9% and 71.5% and 70.8% | 76.4% and 80.9% and 93.4% | > 10000 nM | – | – | – | – | – | – | – | – | – | –
2 | C=CC(=O)N1CCN(c2nc(=O)n(-c3c(C)ccnc3C(C)C)c3nc(-c4c(O)cccc4F)c(F)cc23)C(C)C1 (stereo unspecified) | 82% and 96.3% and 96.5% | 103% and 96.2% and 101% | 97.5% and 113% and 80.8% | 101% and 99.1% and 91.3% | 94.3% and 103% and 92.1% | 117% and 103% and 94.6% | > 10000 nM | – | – | – | – | – | – | – | – | – | –
3 | C=CCn1c(=O)c2cnc(Nc3ccc(N4CCN(C)CC4)cc3)nc2n1-c1cccc(C(C)(C)O)n1 | 84.6% and 98.7% and 93.5% | 94.9% and 107% and 102% | 109% and 102% (2×) | 66.4% and 73.5% and 82.9% | – | – | > 1000 nM | 99.5% and 94.6% and 95.5% | 72.9% and 104% and 93.5% | – | – | – | – | – | – | – | –
4 | CC(=O)O[C@H]1C(=O)[C@@]2(C)[C@H]([C@H](OC(=O)c3ccccc3)[C@]3(O)C[C@H](OC(=O)[C@H](O)[C@@H](NC(=O)c4ccccc4)c4ccccc4)C(C)=C1C3(C)C)[C@]1(OC(C)=O)CO[C@@H]1C[C@@H]2O | – | – | – | – | – | – | < 9.49 nM and 9.59 nM and 15 nM | – | – | 40.3% and 50.5% and 65.1% | 15.2% and 21.8% and 27.1% | 9.46% and 11.5% and 16.2% | 12.5% and 11.3% and 21.3% | 11.2% and 14.4% and 17% | 12.1% and 16.1% and 21.9% | – | –
5 | CC(C)n1c(=O)n(C)c2cnc3cc(F)c(-c4ccc(OCCCN5CCCCC5)nc4)cc3c21 | 85.8% and 92.4% and 99% | 84.1% and 96.4% and 101% | 92.8% and 101% and 115% | 91.6% and 100% and 106% | 94.7% and 113% and 97.5% | 63.6% and 98.3% and 110% | > 10000 nM | – | – | – | – | – | – | – | – | – | –
6 | CC1COCCN1c1cc(-c2ccnn2C)c2ccnc(-c3ccn[nH]3)c2n1 (stereo unspecified) | 70% and 80.3% and 83.9% | 59.9% and 64.2% and 58.6% | 40.7% and 40% and 54.9% | 41.7% and 35.7% and 48.2% | 41.2% and 43.7% and 44.5% | 44.9% and 44.1% and 48% | 190 nM and 202 nM and 558 nM | – | – | – | – | – | – | – | – | – | –
7 | CC1COCCN1c1cc(C2(O)CC3CCC(C2)O3)c2cnn(-c3ccn[nH]3)c2n1 (stereo unspecified) | 62.7% and 58.8% and 79.7% | 51.6% and 50.3% and 63.5% | 52.9% and 47% and 57.7% | 44.2% and 42.2% and 45.6% | 39.6% and 45.2% and 46.2% | 45.9% and 49.6% and 45.8% | 232 nM and 94.2 nM and 805 nM | – | – | – | – | – | – | – | – | – | –
8 | CC1COCCN1c1cc(C2(S(C)(=N)=O)CC2)nc(-c2ccnc3[nH]ccc23)n1 (stereo unspecified) | 87.6% and 102% and 103% | 88.4% and 105% and 117% | 101% (2×) and 81.7% | 77.9% and 69% and 76.1% | 59.6% and 68.9% and 62.7% | 33.2% and 55.2% and 42.2% | 4650 nM and > 10000 nM and 6260 nM | – | – | – | – | – | – | – | – | – | –
9 | CCCS(=O)(=O)Nc1ccc(F)c(C(=O)c2c[nH]c3ncc(-c4ccc(Cl)cc4)cc23)c1F | 87.2% and 97.5% and 76% | 91% and 92.8% and 98.1% | 80.8% and 102% and 99.7% | 82.6% and 101% and 102% | 97.3% and 93.2% and 86% | 32.9% and 13.3% and 13.9% | 6990 nM and 5900 nM and 5640 nM | – | – | – | – | – | – | – | – | – | –
10 | CC[C@@]1(O)C(=O)OCc2c1cc1n(c2=O)Cc2cc3c(CN(C)C)c(O)ccc3nc2-1 | 66.7% and 63.9% and 53.9% | 44.2% and 46.5% and 45.7% | – | – | – | – | 76.4 nM and 80.2 nM and 66.3 nM | 79.1% and 91.7% and 88.3% | 71.2% and 80% and 87.5% | – | – | – | – | – | – | 98.5% and 99.4% and 113% | 115% and 95.2% and 99.9%
11 | CCc1c2c(nc3ccc(O)cc13)-c1cc3c(c(=O)n1C2)COC(=O)[C@]3(O)CC | 35.1% and 21.3% and 31.4% | 22.3% and 16.2% and 23.3% | 17.8% and 10.6% and 15.8% | 4.53% and 2.45% and 5.61% | – | – | 15.6 nM and 13.6 nM and 16.5 nM | 76.9% and 53.6% and 65.9% | 60.1% and 67.4% and 65.8% | – | – | – | – | – | – | – | –
12 | CCc1cc2c(N3CCc4c(cc(Cn5ccnc5)cc4-c4cn(C)nc4C(F)(F)F)C3=O)cc(C)nc2c(OC)n1 | 87% and 98.2% and 83.5% | 84.3% and 88% and 82% | 97.7% and 105% and 92.7% | 61.2% and 84.8% and 84% | 65% and 78.1% and 61.3% | 54.8% and 53.6% and 58.1% | > 10000 nM | – | – | – | – | – | – | – | – | – | –
13 | CCc1cc2c(N3CCc4c(cc(Cn5ccnc5)cc4-c4cn(C)nc4C(F)(F)F)C3=O)ccnc2c(OC)n1 | 78.8% and 89.8% and 94.1% | 83.8% and 87.8% and 80.9% | 73.6% and 90% and 98.3% | 73.4% and 84.9% and 82.2% | 62.2% and 72.7% and 78% | 58.9% and 65.9% and 59% | > 10000 nM | – | – | – | – | – | – | – | – | – | –

From PubChem BioAssay AID1963836 (Molecular Pharmacology Branch, DTP, NCI, 2024)
